Reference: patent US20260232657A1, “MELANOCORTIN SUBTYPE-2 RECEPTOR (MC2R) ANTAGONIST FOR THE TREATMENT OF ACTH-DEPENDENT CUSHING'S SYNDROME” (CRINETICS PHARMACEUTICALS, INC., priority 2023, published 2026)

Assays:
aldosterone = assay: ACTH- and Angiotensin-II-stimulated aldosterone in vivo
Method: (§1) Disease models mimicking states of ACTH excess and hypercortisolism included rats administered exogenous ACTH (1-24) via subcutaneous osmotic pump over 7 days and mice implanted with ACTH-secreting corticotroph AtT-20 tumor cells; animals received daily oral doses of placebo or Compound 1. […] However, six days after discontinuation of the highest dose of Compound 1 (75 mg/kg for 15 days), Ang-II stimulated aldosterone was suppressed, but sodium and potassium levels were normal.

[1] = Previous study in healthy volunteers; type: in vivo, human
From the text: It has therefore been identified as an AESI in this study and may lead to dose limiting toxicity.

corticosterone [2] = assay: ACTH excess model: rats given exogenous ACTH (1-24) via subcutaneous osmotic pump over 7 days; type: in vivo, rat; conditions: ACTH (1-24) osmotic pump, daily oral doses
Method: as §1

CYP3A4 = CYP3A4 (Homo sapiens, UniProt P08684); assay: CYP involvement in metabolic clearance; type: in vitro ADME
From the text: (§2) In vitro studies evaluated the metabolism of Compound 1 in plasma, liver microsomes, and/or 9000 g supernatant fraction of the liver homogenate (liver S9) from various species (including human).

CYP2D6 = CYP2D6 (Homo sapiens, UniProt P10635); assay: CYP involvement in metabolic clearance; type: in vitro ADME
From the text: as §2

CYP2C8 = biological target: T1, CYP2C8 (Homo sapiens, UniProt P10632); assay: CYP involvement in metabolic clearance; type: in vitro ADME
T1 sequence (P10632 1-490): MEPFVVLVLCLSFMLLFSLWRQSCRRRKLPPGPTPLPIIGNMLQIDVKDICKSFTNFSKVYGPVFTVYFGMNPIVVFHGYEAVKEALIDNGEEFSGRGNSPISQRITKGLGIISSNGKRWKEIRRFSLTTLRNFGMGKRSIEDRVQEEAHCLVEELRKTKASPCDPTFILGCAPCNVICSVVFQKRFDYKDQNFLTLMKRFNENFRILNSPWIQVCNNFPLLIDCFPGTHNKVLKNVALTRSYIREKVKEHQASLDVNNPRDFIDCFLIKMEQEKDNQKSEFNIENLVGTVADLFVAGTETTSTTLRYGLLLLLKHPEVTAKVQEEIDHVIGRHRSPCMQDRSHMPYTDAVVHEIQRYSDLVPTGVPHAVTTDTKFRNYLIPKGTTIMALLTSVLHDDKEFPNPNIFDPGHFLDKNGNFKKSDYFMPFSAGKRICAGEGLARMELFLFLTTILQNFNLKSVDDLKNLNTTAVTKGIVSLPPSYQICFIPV
From the text: as §2

[3] = tested on: corticosterone secretion after ACTH (1-24); assay: ACTH (1-24) challenge, corticosterone secretion in rats; type: in vivo, rat
[4] = Effect of food on absorption; type: in vivo, human; conditions: oral tablet
Method: Participants will receive Compound 1 at the appropriate dose for their cohort as a single daily dose for 10 days at approximately 8 am. Tablets will be taken orally with 240 mL of water.

[5] = tested on: other human melanocortin receptor subtypes; assay: Selectivity over other melanocortin receptor subtypes; type: binding; conditions: MC2R vs other subtypes
[6] = Safety pharmacology studies
Method: (§3) The overall nonclinical safety of Compound 1 was assessed in 28-day and 3-month repeat dose general toxicity studies in rat and dog and in a battery of in vitro and in vivo genotoxicity and safety pharmacology studies.

[7] = In vitro and in vivo genotoxicity studies; conditions: in vitro and in vivo battery
Method: as §3

corticosterone [8] = assay: ACTH excess model: mice implanted with ACTH-secreting corticotroph AtT-20 tumor cells; type: in vivo, mouse; conditions: mice with AtT-20 tumor cells, daily oral doses
Method: as §1

[9] = Repeat dose general toxicity study in dog; type: in vivo
Method: as §3

MC2R [10] = biological target: T2, MC2R (Homo sapiens, UniProt Q01718); assay: ACTH-mediated G-protein activation and cAMP production; type: biochemical
[11] = Repeat dose general toxicity study in rat; type: in vivo
Method: as §3

MC2R [12] = biological target: T2, MC2R; assay: MC2R antagonist affinity / ACTH binding to the receptor
[13] = In vitro metabolism in plasma, liver microsomes and liver S9; type: in vitro ADME, various species (including human); conditions: liver microsomes, liver S9
From the text: as §2

5-HT1B receptor = 5-HT1B receptor (Homo sapiens, UniProt P28222); assay: Screen for potential off-target activities; type: biochemical
[14] = six days after discontinuation of 75 mg/kg for 15 days

T2 sequence (Q01718 whole entry): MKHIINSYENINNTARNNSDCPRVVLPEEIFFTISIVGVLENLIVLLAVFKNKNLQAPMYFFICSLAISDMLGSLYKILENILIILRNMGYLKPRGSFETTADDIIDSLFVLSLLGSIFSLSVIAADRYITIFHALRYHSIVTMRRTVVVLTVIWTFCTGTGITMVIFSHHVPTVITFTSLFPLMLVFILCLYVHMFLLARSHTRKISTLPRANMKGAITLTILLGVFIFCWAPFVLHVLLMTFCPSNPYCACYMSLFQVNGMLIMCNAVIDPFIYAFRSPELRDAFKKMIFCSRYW
T2 sequence (Q8TCY5 whole entry partner): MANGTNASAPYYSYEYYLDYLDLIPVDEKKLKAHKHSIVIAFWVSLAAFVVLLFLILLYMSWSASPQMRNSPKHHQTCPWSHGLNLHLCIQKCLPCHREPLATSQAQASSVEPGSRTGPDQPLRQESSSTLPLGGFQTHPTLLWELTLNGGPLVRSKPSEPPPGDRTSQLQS
Sequence of 5-HT1B receptor (P28222 whole entry): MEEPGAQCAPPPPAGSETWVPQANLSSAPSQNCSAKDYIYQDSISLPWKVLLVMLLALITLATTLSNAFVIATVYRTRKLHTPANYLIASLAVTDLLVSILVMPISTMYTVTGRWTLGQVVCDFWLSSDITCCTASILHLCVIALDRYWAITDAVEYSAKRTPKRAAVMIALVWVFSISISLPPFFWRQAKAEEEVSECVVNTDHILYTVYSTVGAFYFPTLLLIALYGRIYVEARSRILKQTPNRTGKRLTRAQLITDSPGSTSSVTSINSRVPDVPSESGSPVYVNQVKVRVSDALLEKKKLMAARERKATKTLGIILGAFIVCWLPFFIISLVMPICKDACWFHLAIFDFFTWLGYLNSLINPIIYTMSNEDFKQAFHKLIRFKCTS
Sequence of CYP2D6 (P10635 whole entry): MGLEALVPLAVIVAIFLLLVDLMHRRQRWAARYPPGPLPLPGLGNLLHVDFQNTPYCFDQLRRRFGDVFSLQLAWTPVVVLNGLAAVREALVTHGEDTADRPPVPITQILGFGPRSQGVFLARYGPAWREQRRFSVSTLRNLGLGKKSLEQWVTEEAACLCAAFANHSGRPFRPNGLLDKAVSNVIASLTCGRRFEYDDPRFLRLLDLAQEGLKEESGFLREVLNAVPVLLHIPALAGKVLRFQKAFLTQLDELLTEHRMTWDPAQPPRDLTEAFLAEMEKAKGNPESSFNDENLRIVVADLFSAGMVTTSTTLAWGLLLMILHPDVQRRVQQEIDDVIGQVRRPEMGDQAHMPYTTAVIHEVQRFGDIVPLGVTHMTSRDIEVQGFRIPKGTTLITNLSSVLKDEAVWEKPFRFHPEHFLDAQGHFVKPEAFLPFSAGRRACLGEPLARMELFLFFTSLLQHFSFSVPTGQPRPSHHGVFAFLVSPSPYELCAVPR
Sequence of CYP3A4 (P08684 whole entry): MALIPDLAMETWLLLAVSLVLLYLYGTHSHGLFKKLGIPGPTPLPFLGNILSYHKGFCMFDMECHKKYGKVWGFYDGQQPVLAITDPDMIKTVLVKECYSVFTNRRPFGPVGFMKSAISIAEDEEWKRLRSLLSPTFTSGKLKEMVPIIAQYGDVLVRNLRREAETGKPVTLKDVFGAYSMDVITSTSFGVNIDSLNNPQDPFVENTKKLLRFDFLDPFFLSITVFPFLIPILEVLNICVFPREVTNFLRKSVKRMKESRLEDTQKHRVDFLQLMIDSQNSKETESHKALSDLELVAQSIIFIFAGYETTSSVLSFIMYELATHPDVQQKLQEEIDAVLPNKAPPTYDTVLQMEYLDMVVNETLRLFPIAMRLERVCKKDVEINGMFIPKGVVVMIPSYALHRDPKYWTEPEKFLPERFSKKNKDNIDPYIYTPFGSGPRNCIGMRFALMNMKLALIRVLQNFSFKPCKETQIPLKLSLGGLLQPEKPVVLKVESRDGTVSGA

Structure (SMILES): CCOc1ccccc1-c1ccc(N2CCN(C(=O)C3(C(F)(F)F)CCC3)C[C@H]2CC)c(C(=O)N[C@@H]2CN3CCC2CC3)n1 [Compound 1, 6-(2-ethoxyphenyl)-3-((R)-2-ethyl-4-(1-(trifluoromethyl)cyclobutane-1-carbonyl)piperazin-1-yl)-N—((S)-quinuclidin-3-yl) picolinamide]
- Angiotensin-II stimulation of aldosterone (aldosterone; during treatment): did not affect
- ACTH-stimulated aldosterone levels (aldosterone; in vivo): reduced
- Ang-II stimulated aldosterone after discontinuation (aldosterone; [14]): suppressed
- sodium and potassium levels after discontinuation (aldosterone; [14]): normal
- adverse event observed during treatment [1]: Glucocorticoid deficiency was observed
- adrenal gland effect (corticosterone [2]): dose-dependent adrenal gland atrophy
- decrease of corticosterone values on Days 1 and 7 (maximum) (corticosterone [2]): ≤ 92%
- role of CYP3A4 in catalyzing oxidative metabolism (CYP3A4): plays a key role
- role of CYP2D6 in catalyzing oxidative metabolism (CYP2D6): may also have a minor contribution
- role of CYP2C8 in catalyzing oxidative metabolism (CYP2C8): may also have a minor contribution
- corticosterone secretion after 1 μg/kg ACTH (1-24) ([3]; oral, 3 and 10 mg/kg, male and female rats): dose-dependently suppressed
- corticosterone after ACTH administration at 1, 4, 24, and 48 hours after a single dose ([3]; single dose, time course): dose-dependent suppression of corticosterone at 1 and 4 hours only
- effect of food on absorption [4]: minimal effect of food on absorption
- selectivity over other human melanocortin receptor subtypes [5]: > 2900 fold
- adverse effects on core organ systems (cardiovascular, central nervous, respiratory) [6]: No findings
- genotoxic risk [7]: No findings indicating significant genotoxic risk
- adrenal gland effect (corticosterone [8]): dose-dependent adrenal gland atrophy
- decrease of corticosterone values on Days 1 and 7 (maximum) (corticosterone [8]): ≤ 92%
- target organ toxicity finding ([9]; 3-month dog study): adrenal and liver atrophy
- adrenal gland and liver findings with hydrocortisone supplementation ([9]; dog): mitigated with hydrocortisone supplementation
- ACTH-mediated G-protein activation and subsequent cAMP production (MC2R [10]): potently blocked
- target organ toxicity finding ([11]; 28-day rat study): foamy macrophages in the lungs
- consistency of rat lung findings with drug-induced PLD ([11]; rat lung): not to be consistent with drug-induced PLD
- ACTH binding to the receptor (MC2R [12]): potently blocked
- Ki (MC2R [12]): < 10 nM
- primary metabolic pathways involved in metabolic clearance [13]: oxidative metabolism, resulting in formation of hydroxylated and desmethyl metabolites
- selectivity for hMC2R over 5-HT1B (5-HT1B receptor): more than 2200 fold
- agonist activity against the 5-HT1B receptor (5-HT1B receptor; off-target screen): no agonist activity
- antagonist activity against the 5-HT1B receptor (5-HT1B receptor; off-target screen): weak antagonist
